A short description of data set [1]: Inhibition of LPS induced TNF-alpha expression in ICR mouse peritoneal macrophage at 10 uM incubated for 30 mins followed by LPS stimulation measured after 24 hrs by ELISA assay relative to control. It counts as functional. Conditions: […]. (An ELISA detects its analyte on a solid surface through an enzyme-linked reagent.)
Data set [2] can be described thus: Inhibition of LPS induced IL-6 expression in ICR mouse peritoneal macrophage at 10 uM incubated for 30 mins followed by LPS stimulation measured after 24 hrs by ELISA assay relative to control. As to conditions: […]. It counts as functional.
Data set [3] is described as follows: Inhibition of TNF-alpha expression in LPS stimulated mouse RAW264.7 cells incubated for 1 hr by ELISA assay. Conditions: RAW264.7, 1 h. It counts as functional, cell-based.
The subject of a further data set is RAW264.7. The data set is described as follows: Inhibition of NO production in LPS stimulated mouse RAW264.7 cells incubated for 1 hr by Griess reagent based assay. The format is functional, cell-based. As to conditions: RAW264.7, 1 h.
Data set [4] can be described thus: Inhibition of IL-6 expression in LPS stimulated mouse RAW264.7 cells incubated for 1 hr by ELISA assay. The format is functional, cell-based. Conditions: RAW264.7, 1 h.
Data set [5] is described as follows: Half life in rat at 3 mg/kg, po. As to conditions: in vivo. The format is ADME, organism-based.
The nature of data set [6]: Oral bioavailability in rat at 3 mg/kg. The format is ADME, organism-based. Conditions: in vivo.
Data set [7] has as its target Matrix metalloproteinase-9 (Homo sapiens, UniProt P14780). The data set is described as follows: Inhibition of MMP-9 (unknown origin).
In data set [8] the target is T1, 72 kDa type IV collagenase (Homo sapiens, UniProt P08253). The data set is described as follows: Inhibition of MMP-2 (unknown origin).
T1 sequence (P08253 whole entry): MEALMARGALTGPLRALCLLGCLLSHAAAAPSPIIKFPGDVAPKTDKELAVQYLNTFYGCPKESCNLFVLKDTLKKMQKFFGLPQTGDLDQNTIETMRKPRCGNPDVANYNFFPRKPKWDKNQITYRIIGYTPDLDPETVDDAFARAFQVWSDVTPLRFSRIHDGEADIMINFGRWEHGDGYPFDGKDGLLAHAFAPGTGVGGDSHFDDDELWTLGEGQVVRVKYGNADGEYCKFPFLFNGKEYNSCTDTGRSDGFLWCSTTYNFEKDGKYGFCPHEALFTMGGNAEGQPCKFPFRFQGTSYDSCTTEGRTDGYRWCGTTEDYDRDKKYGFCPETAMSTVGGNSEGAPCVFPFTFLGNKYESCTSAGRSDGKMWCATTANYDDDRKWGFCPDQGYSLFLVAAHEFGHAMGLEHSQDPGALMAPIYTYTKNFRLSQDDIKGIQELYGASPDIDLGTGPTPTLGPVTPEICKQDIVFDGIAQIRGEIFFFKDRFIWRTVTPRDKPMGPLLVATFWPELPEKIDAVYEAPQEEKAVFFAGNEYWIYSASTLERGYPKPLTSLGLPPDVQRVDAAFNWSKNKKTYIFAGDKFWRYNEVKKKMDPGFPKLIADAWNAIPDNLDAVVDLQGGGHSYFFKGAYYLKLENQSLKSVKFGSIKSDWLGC
Data set [9] addresses T1, 72 kDa type IV collagenase. The experiment in a line: Inhibition of recombinant human MMP-2 using QF24 as substrate incubated for 3 hrs by spectrofluorometer assay.
The target of the next data set is Neutrophil collagenase (Homo sapiens, UniProt P22894). The data set is described as follows: Inhibition of recombinant human MMP-8 using QF24 as substrate incubated for 3 hrs by spectrofluorometer assay.
Chain of Neutrophil collagenase (P22894 whole entry): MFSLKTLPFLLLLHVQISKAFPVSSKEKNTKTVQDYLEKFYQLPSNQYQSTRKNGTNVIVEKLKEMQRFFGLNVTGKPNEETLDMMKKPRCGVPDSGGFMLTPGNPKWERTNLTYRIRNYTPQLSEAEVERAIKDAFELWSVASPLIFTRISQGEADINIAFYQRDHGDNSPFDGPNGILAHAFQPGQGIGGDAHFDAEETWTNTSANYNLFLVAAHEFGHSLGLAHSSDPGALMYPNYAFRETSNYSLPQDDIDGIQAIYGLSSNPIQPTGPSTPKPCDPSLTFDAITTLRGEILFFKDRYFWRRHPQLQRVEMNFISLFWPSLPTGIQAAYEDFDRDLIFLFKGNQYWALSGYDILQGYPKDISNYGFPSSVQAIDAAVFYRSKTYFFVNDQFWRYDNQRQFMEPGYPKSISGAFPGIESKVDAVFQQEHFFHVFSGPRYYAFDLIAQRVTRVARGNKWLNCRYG

Chain of Matrix metalloproteinase-9 (P14780 whole entry): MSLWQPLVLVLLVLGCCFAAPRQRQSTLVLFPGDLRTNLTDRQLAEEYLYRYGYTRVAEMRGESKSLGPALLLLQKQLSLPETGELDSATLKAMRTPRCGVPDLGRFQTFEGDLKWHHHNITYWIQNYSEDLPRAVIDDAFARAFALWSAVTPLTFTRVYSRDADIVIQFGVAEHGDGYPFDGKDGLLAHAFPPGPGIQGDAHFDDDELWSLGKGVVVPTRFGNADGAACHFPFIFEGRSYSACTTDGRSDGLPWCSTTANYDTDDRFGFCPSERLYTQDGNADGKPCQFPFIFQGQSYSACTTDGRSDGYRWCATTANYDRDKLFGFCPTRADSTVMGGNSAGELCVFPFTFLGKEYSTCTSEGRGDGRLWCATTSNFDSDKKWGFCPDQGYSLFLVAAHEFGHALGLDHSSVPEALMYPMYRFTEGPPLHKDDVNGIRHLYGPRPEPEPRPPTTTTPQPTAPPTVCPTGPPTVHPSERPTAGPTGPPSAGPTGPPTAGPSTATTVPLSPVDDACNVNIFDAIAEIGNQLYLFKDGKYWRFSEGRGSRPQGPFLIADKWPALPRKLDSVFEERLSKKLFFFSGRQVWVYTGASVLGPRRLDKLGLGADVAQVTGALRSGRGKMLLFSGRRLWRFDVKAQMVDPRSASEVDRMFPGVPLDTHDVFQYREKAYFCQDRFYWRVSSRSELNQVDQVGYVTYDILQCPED

Consider `COc1cc(/C=C2\Cc3cc(OC)c(OC)cc3C2=O)ccc1O`, for which the inhibition at 10 µM in data set [1] is 79.3%; in data set [2], 81.4%.

With `COc1cc(/C=C2\Cc3ccc(O)cc3C2=O)ccc1O`, the inhibition at 10 µM in data set [1] was found to be 83.7%; in [2], 69.3%.

Take `CCCc1nn(C)c2c(NCCCN3CCOCC3)nc(/C=C/c3cc(OC)c(OC)c(OC)c3)nc12`: the IC50 came to 5.63 µM in data set [3], 2.64 µM with RAW264.7 and 4.38 µM in data set [4].

`Cc1coc2c1C(=O)C(=O)c1c-2ccc2c1CCCC2(C)C` [TANSHINONE IIA] showed a half-life in [5] of 0.34 h. In data set [6], this molecule registered a bioavailability of under 3.5%.

Turning to `O=C1NC(=O)C(O)(CC(=O)c2ccc(NS(=O)(=O)c3ccc(C(F)(F)F)cc3)cc2)C(=O)N1`, the IC50 in data set [7] came out at 0.00824 µM; in data set [8], 0.00235 µM.

As for `Cc1coc2c1C(=O)c1c3c-2ccc2c3c(n1Cc1ccccc1)C(=O)CC2(C)C`, the half-life in data set [5] is 4.05 h. In data set [6], this molecule had a bioavailability of 30.2%.

`O=C(CCN1CCN(Cc2ccccc2)CC1)Nc1nc(-c2ccccc2)cs1`: the figures for the IC50 (in [9]; on Neutrophil collagenase) were 10.2 µM and 11.9 µM, respectively.

Turning to `O=C(CN1CCN(c2ccccc2)CC1)Nc1nc(-c2ccc(F)cc2)cs1`, the values for the IC50 (in data set [9]; at Neutrophil collagenase) were 4.22 µM and 2.34 µM, respectively.

For `CCCOc1cccc2c1C(=O)/C(=C/c1ccc(O)c(OC)c1)C2`, the inhibition at 10 µM amounted to 72% in data set [1] and 84.9% in data set [2].

As a reminder, the inhibition is the percentage by which the read-out fell short of the control. A lower inhibition goes with a weak effect. One may read the IC50 as the concentration at which inhibition is half-maximal. By half-life is commonly meant the time in which the quantity being followed falls by half. Read a low half-life as rapid decline. In general, bioavailability refers to dose-corrected exposure relative to a reference, in per cent.

Source of the values: ChEMBL document CHEMBL5230116, “Recent developments of small molecules with anti-inflammatory activities for the treatment of acute lung injury” (Eur J Med Chem, 2020).
